Where two headings read alike, the source gives them in different places.
Tests used:
[1] = system: H1975, PC9, and HCC827 parental and osimertinib-resistant cells; assay: Cell-growth-inhibition assays, summary over the cell panel; type: cell-based; settings: Homo sapiens
Protocol: (§1) Approximately 1500 cells/[…] were plated in 96-well plates with 4 wells for each treatment condition. Plates were incubated at 37 °C. For the cell growth assay, one set of cells was treated each day for 5 days with cell titer glow reagent (Promega), and luciferase luminescence (indicator of cell viability) was measured according to the manufacturer’s protocol. For the growth inhibition end-point assay, cells in 96-well plates were treated with target drugs as follows.

PC9-osiR-NCI1 cells [2] = assay: Cell-growth-inhibition end-point assay (CellTiter-Glo, 72 h); type: cell-based; settings: Homo sapiens, read-out: IC50 (osimertinib), PC9-osiR-NCI1
Protocol: (§2) After 3–4 days of growth, surviving cells were trypsinized and plated again at the same initial density and the next day, the medium was replaced with a fresh growth medium, supplemented with 2× (relative to the previous concentration) of osimertinib. This process continued until osimertinib concentration reached […]. The newly generated osimertinib-resistant cells (H1975-osiR-NCI1, PC9-osiR-NCI1, HCC827-osiR-NCI1, and HCC827-osiR-NCI2) were then maintained at […] osimertinib.
as §1

HCC827-osiR-NCI1 cells = assay: as above; type: cell-based; settings: Homo sapiens
Protocol: as §2, §1

H1975-osiR-NCI1 cells = assay: as above; type: cell-based; settings: Homo sapiens
Protocol: as §2, §1

PC9-osiR-NCI1 cells [3] = assay: Cell-cycle analysis by flow cytometry (propidium iodide); type: cell-based, human; settings: 50 nM osimertinib or 100 nM AU-16770, 18 h
Protocol: (§3) PC9 and PC9-osiR-NCI1 cells were initially grown in an RPMI-1640 medium supplemented with 10% FBS, 1% penicillin/streptomycin, and 2 […]. Following 3–4 days of growth, cells were trypsinized, replated in 10 cm Petri dishes and grown in drug-free RPMI-1640, 10% FBS, and 1% penicillin/streptomycin. Both groups of cells were treated with DMSO (vehicle), osimertinib (50 nM), or AU-16770 (100 nM) for 18 h. Cells were trypsinized, washed with PBS, fixed in 70% ethanol, washed twice in PBS, and approximately 5 × 10^5 cells/mL were incubated in […] propidium iodide/PBS and 100 units/mL RNase to label the DNA for 1 h before it was analyzed by FACS.

PC9 cells [4] = assay: as above; type: cell-based, human; settings: 50 nM osimertinib or 100 nM AU-16770, 18 h
Protocol: as §3

[5] = system: PC9-osiR-NCI1-derived tumors; assay: Subcutaneous xenograft mouse model; type: in vivo, athymic female nude mice
Protocol: All mice xenograft studies were conducted on 5–6-week-old female athymic nude mice […] with approval from the NCI Animal Care and Use Committee (ACUC). Mice were obtained from NCI-Frederick and maintained in a pathogen-free facility at the NCI. H1975-osiR-NCI1 or PC9-osiR-NCI1 cells were cultured in RPMI (Millipore-Sigma) supplemented with 10% fetal bovine serum (Gemini) and 1% penicillin/streptomycin. All cell lines were then cultured in a humidified incubator with 5% CO2 at 37 °C. Cells were detached using 0.25% trypsin (ThermoFisher) and resuspended in PBS prior to implantation. Approximately 2 × 10^6 cells/0.1 mL/mouse were implanted subcutaneously. […] Tumor growth was monitored twice weekly by bilateral caliper measurement and tumor volume was calculated using the length × diameter^2 formula. Mice with tumor volume <200 mm^3 were randomized into vehicle or treatment groups to ensure equal distribution across groups. However, for tumor tissue collection and lysate preparation, mice with xenografts were maintained with osimertinib until tumor size reached approximately 900 mm^3 prior to drug treatment for 5 days. Vehicle (0.5% methyl cellulose), osimertinib (5 mg/kg/day), AU-15506 (5 mg/kg/day), or AU-16770 (5 mg/kg/day) were administered by oral gavage. AU-15506 or AU-16770 were prepared in a solution containing 10% PEG400, 10% D-ɑ-tocopheryl polyethylene glycol succinate (TPGS), and 0.4% Tween 80. Tumor size was measured twice weekly. Tumor volume for each mouse was converted to percent change based on a baseline volume of 100% on treatment day 0. Tumor growth inhibition was assessed by comparison of either the average tumor volume or mean changes in tumor volume for the control and treatment groups. Statistical significance was evaluated using a two-tailed Student’s t test.

H1975 cells = assay: Cell-growth-inhibition end-point assay (CellTiter-Glo, 72 h); type: cell-based; settings: Homo sapiens, NCI-H1975, osimertinib alone; Figure 1B
Protocol: as §1

HCC827 cells = assay: as above; type: cell-based; settings: Homo sapiens, HCC827, read-out: IC50 (osimertinib), HCC827
Protocol: as §1

PC9 cells [6] = assay: as above; type: cell-based; settings: Homo sapiens, PC-9, read-out: IC50 (osimertinib), PC9
Protocol: as §1

FGFR1 = FGFR1 (Homo sapiens, UniProt P11362); parameters: method as in PMID 19282669; settings: at 1 μM; cited from earlier work
Chain of FGFR1 (P11362 22-822, species assumed): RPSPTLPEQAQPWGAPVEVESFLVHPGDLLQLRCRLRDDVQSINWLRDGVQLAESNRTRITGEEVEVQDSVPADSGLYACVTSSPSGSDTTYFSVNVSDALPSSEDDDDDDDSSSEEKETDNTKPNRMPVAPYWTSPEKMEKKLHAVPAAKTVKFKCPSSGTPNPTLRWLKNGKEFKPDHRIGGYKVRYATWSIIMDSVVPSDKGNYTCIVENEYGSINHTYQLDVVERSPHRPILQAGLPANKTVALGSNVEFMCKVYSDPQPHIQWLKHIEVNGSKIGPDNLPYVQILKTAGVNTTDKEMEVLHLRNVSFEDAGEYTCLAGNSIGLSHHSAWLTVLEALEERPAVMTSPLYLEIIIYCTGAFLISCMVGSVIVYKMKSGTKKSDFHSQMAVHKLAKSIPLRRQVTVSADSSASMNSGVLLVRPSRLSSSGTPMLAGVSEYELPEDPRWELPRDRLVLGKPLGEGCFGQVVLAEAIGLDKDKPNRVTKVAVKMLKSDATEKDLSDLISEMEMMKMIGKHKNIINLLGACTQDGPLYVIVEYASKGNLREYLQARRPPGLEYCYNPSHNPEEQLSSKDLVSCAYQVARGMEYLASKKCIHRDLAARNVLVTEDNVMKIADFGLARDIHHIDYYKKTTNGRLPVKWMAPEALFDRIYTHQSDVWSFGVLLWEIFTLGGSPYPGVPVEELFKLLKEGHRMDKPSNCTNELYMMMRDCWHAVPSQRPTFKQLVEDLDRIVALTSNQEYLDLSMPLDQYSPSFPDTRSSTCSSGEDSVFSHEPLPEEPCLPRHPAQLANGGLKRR

Structure (SMILES) | IC50 ([1]; read-out: IC50s, osimertinib-resistant cells (range over cell lines)) [µM] | IC50 ([1]; read-out: IC50s, osimertinib-sensitive cells (range over cell lines)) [µM] | IC50 (PC9-osiR-NCI1 cells [2]) [µM] | IC50 (HCC827-osiR-NCI1 cells; read-out: IC50 (osimertinib), HCC827-osiR-NCI1) [µM] | IC50 (HCC827-osiR-NCI1 cells; read-out: IC50, HCC827-osiR cells) [µM] | IC50 (H1975-osiR-NCI1 cells; NCI-H1975/OSIR, osimertinib alone, read-out: IC50, H1975-osiR cells) [µM] | IC50 (H1975-osiR-NCI1 cells; read-out: IC50 (osimertinib), H1975-osiR-NCI1) [µM] | Cell Cycle Phase % G1, PC9-osiR (PC9-osiR-NCI1 cells [3]) [%] | Cell Cycle Phase % G2, PC9-osiR (PC9-osiR-NCI1 cells [3]) [%] | Cell Cycle Phase % S, PC9-osiR (PC9-osiR-NCI1 cells [3]) [%] | Cell Cycle Phase % G1, PC9 (PC9 cells [4]) [%] | Cell Cycle Phase % G2, PC9 (PC9 cells [4]) [%] | Cell Cycle Phase % S, PC9 (PC9 cells [4]) [%] | effect on xenograft tumor growth ([5]; 5 mg/kg/day oral gavage, AU-15506 arms 14 days, AU-16770 arms 28 days) | median survival (Kaplan–Meier) ([5]; 5 mg/kg/day, combination = AU-16770-osimertinib (days 0–32), AU-15506-osimertinib (days 33–46)) [days] | Tumor growth inhibition (TGI) ([5]; Day 28, 5 mg/kg/day oral gavage) [%] | IC50 (H1975 cells) [µM] | IC50 (HCC827 cells) [µM] | IC50 (PC9 cells [6]) [µM] | inhibition of FGFR1 (FGFR1) [%]
C=CC(=O)Nc1cc(Nc2nccc(-c3cn(C)c4ccccc34)n2)c(OC)cc1N(C)CCN(C)C [osimertinib] | 1.86 to 5.49 | 0.00757 to 0.0468 | 2.21 | 5.49 | 5.49 | 1.86 | 1.86 | 54.10 | 1.41 | 38.40 | 67.40 | 24.8 | 13.10 | induced some tumor regression | 40 | 50 | 0.0468 | 0.0075 | 0.0375 | –
CN(C)C/C=C/C(=O)Nc1ccc(C(=O)N2CCC[C@@H](Nc3ncc(Cl)c(-c4c[nH]c5ccccc45)n3)C2)cc1 [THZ531] | – | – | – | – | – | – | – | – | – | – | – | – | – | – | – | – | – | – | – | 82
